Assay results published in patent US20230279146A1, “VISCOSITY REDUCING EXCIPIENTS AND COMBINATIONS THEREOF FOR HIGHLY CONCENTRATED PROTEIN FORMULATIONS” (Merck Patent GmbH, priority 2020, published 2023).
“Also recorded” adds a separate entry of the source. Counter-ions that a name gives are not always drawn.

Tests used:
Format in all cases: physicochemical
Evolocumab = experiment: Viscosity of Evolocumab formulated in acetate buffer pH 5.0 with single excipients (mVROC microfluidic viscometer, 20° C.); conditions: for viscosity of the formulation: Evolocumab 196 mg/ml, 150 mM pyridoxine, thiamine hydrochloride or ascorbic acid, 75 mM Paracetamol; for viscosity of the formulation / viscosity of a Evolocumab formulation: pH 5.0; for viscosity reducing effect compared among the excipients: Evolocumab pH 5.0, 150 mM excipient, data set with concentration by absorption spectroscopy; for viscosity for Evolocumab formulations: pH 5.0, 150 mM excipient
Procedure: 20 mM Acetate buffer was prepared by mixing 1.2 mg/ml glacial acetic acid with ultrapure water. pH was adjusted to 5.0 using HCl and NaOH if necessary. 0.1 mg/ml Polysorbate 80 was added as stabilizer
Excipient solutions of 150 mM leucine, isoleucine, phenylalanine, ascorbic acid, pyridoxine, proline, lysine, guanidine hydrochloride, thiamine hydrochloride, thiamine monophosphate were prepared in acetate buffer pH 5.0, respectively. Similarly, 25 mM quinine hydrochloride and 5 mM cyanocobalamin were prepared, respectively. Paracetamol and thiamine pyrophosphate were prepared with a concentration of 75 mM. The pH was adjusted using HCl or NaOH, if necessary.
When excipients themselves have a strong absorbance at 280 nm a Bradford-Assay was used.
The mVROC™ Technology (Rheo Sense, San Ramon, Calif. USA) was used for viscosity measurements.
A volume of 200 μl was used. All samples were measured as triplicates.

Infliximab [1] = experiment: Thermal stability (Tm, Tagg) of Infliximab in phosphate buffer pH 7.2 by nano-DSF; conditions: Infliximab pH 7.2, change versus control; for aggregation onset temperature Tagg: 150 mM excipient; for thermodynamic transition temperature characterizing heat induced protein unfolding (Tm): 150 mM valine, leucine, ascorbic acid or proline, 5 mM cyanocobalamin
Procedure: 2.1 Thermal Stability of Infliximab Formulated in Phosphate Buffer pH 7.2 Containing Valine, Leucine, Ascorbic Acid, Cyanocobalamin and Proline as Single Excipients
Buffers and samples were prepared as described under 1.1.
The nano-DSF Technology of a Prometheus system (NanoTemper Technologies GmbH, Munich, Germany) was used to determine melting points and aggregation points.
Fluorescence was measured at 330 and 350 nm as well as the backscattering intensity over a temperature range from 20 to 95° C. with an incline of 1° C./min.
Buffers and samples were prepared as described under 1.4 and 1.5.
Thermal stability measurements were performed as described under 2.1.

Infliximab [2] = experiment: Viscosity of Infliximab formulated in phosphate buffer pH 7.2 with single excipients (mVROC microfluidic viscometer, 20° C.); conditions: for viscosity reducing effect on the Infliximab solution: protein concentrations 152 mg/ml and 185 mg/ml, 150 thiamine hydrochloride, thiamine monophosphate
Procedure: Individual excipient solutions of 150 mM valine, leucine, phenylalanine, ascorbic acid, pyridoxine, proline and thiamine monophosphate were prepared in phosphate buffer pH 7.2. In the same buffer, a 5 mM solution of cyanocobalamin was prepared. Folic acid was prepared in a 13 mM concentration in phosphate puffer pH 7.2. Thiamine pyrophosphate was prepared in a 75 mM concentration in phosphate puffer pH 7.2. The pH was adjusted using HCl or NaOH where necessary.
For absorption spectroscopy, the absorbance at 280 nm was measured using a BioSpectrometer® kinetic (Eppendorf, Hamburg, Germany) with a protein extinction coefficient of A0.1%, 280 nm=1.428.
The mVROC™ Technology (Rheo Sense, San Ramon, Calif., USA) was used for viscosity measurements.
Measurements were performed at 20° C. using a 500 μl syringe and a shear rate of 3000 s-1. A volume of 200 μl was used. All samples were measured as triplicates.
Results of viscosity measurements regarding these experiments can be seen in FIG. 1, FIG. 2 and FIG. 3.

[3] = 5 mM cyanocobalamin, 25 mM quinine hydrochloride
[4] = protein concentration 174 mg/ml, 150 mM pyridoxine, ascorbic acid, thiamine hydrochloride or thiamine phosphate, 5 mM cyanocobalamin, 13 mM folic acid, 75 mM thiamine pyrophosphate, versus formulation without excipients
[5] = protein concentration 149 mg/ml, 150 mM pyridoxine, thiamine hydrochloride or thiamine monophosphate, 5 mM cyanocobalamin, 13 mM folic acid, 75 mM thiamine pyrophosphate
[6] = higher protein concentration of 192 mg/ml
[7] = protein concentration 192 mg/ml (first mention, absorption spectroscopy)
[8] = protein concentration 122 mg/ml (absorption spectroscopy), pH 7.2, 150 mM excipient, versus no excipient
[9] = protein concentration 143 mg/ml, pH 7.2, 150 mM excipient, versus no excipient
[10] = protein concentration 180 mg/ml (Bradford assay), 150 mM pyridoxine or thiamine hydrochloride, 5 mM cyanocobalamin, 25 mM quinine hydrochloride, 75 mM paracetamol
[11] = third data set, 75 mM thiamine pyrophosphate, 150 mM thiamine hydrochloride, thiamine monophosphate (thiamine monophosphate only at 180 mg/ml)

| Molecule | viscosity of the formulation (Evolocumab; [3]) | thermodynamic transition temperature characterizing heat induced protein unfolding (Tm) (Infliximab [1]) | viscosity of the formulation (Infliximab [2]; [4]) | viscosity of the formulation (Infliximab [2]; [5]) | viscosity for Evolocumab formulations (Evolocumab; [6]) | viscosity for Evolocumab formulations (Evolocumab; [7]) | viscosity of a Evolocumab formulation (Evolocumab; [10]) | other results |
| --- | --- | --- | --- | --- | --- | --- | --- | --- |
| O=C1O[C@H]([C@@H](O)CO)C(O)=C1O [ascorbic acid] | reduced viscosity of the formulation | increase | viscosity reducing effect | – | – | – | – | aggregation onset temperature Tagg (Infliximab [1]): increase |
| Nc1nc2ncc(CNc3ccc(C(=O)N[C@@H](CCC(=O)O)C(=O)O)cc3)nc2c(=O)[nH]1 [folic acid] | – | – | reduce the viscosity of the formulation | reduce the viscosity of the formulation | – | – | – | – |
| N=C(N)N [guanidine hydrochloride, carbamimidoylazanium chloride] | – | – | – | – | reduced viscosity | reduced viscosity | – | viscosity reducing effect compared among the excipients (Evolocumab): most pronounced viscosity reducing effect |
| CC[C@H](C)[C@H](N)C(=O)O [isoleucine] | – | – | – | – | reduced viscosity | reduced viscosity | – | – |
| CC(C)C[C@H](N)C(=O)O [leucine] | – | increase | – | – | reduced viscosity | reduced viscosity | – | viscosity reducing effect compared among the excipients (Evolocumab): most pronounced viscosity reducing effect; aggregation onset temperature Tagg (Infliximab [1]): increase; viscosity of the formulation (Infliximab [2]; [8]): reduced the viscosity of the formulation; viscosity of the formulation (Infliximab [2]; [9]): reduced viscosity of the formulation |
| NCCCC[C@H](N)C(=O)O [lysine] | – | – | – | – | reduced viscosity | reduced viscosity | – | viscosity reducing effect compared among the excipients (Evolocumab): most pronounced viscosity reducing effect |
| CC(=O)Nc1ccc(O)cc1 [paracetamol, reference compound] | reduced the viscosity of the formulation | – | – | – | – | – | reduced viscosity of the formulation | – |
| N[C@@H](Cc1ccccc1)C(=O)O [phenylalanine] | – | – | – | – | reduced viscosity | reduced viscosity | – | viscosity of the formulation (Infliximab [2]; [8]): reduced the viscosity of the formulation; viscosity of the formulation (Infliximab [2]; [9]): reduced viscosity of the formulation; also recorded: most efficient viscosity reducing excipient |
| O=C(O)[C@@H]1CCCN1 [proline] | – | increase | – | – | reduced viscosity | – | – | aggregation onset temperature Tagg (Infliximab [1]): increase; viscosity of the formulation (Infliximab [2]; [8]): reduced the viscosity of the formulation; viscosity of the formulation (Infliximab [2]; [9]): reduced viscosity of the formulation |
| Cc1ncc(CO)c(CO)c1O [pyridoxine] | reduced viscosity of the formulation | – | viscosity reducing effect | reduce the viscosity of the formulation | – | – | reduced | – |
| C=C[C@H]1C[N@@]2CC[C@H]1C[C@H]2[C@H](O)c1ccnc2ccc(OC)cc12 [quinine hydrochloride, (R)-[(1S,2S,4S,5R)-5-ethenyl-1-azabicyclo[2.2.2]octan-2-yl](6-methoxyquinolin-4-yl)methanol dihydrate hydrochloride, reference compound] | reduced the viscosity of the formulation | – | – | – | – | – | reduced viscosity of the formulation | – |
| Cc1ncc(C[n+]2csc(CCO)c2C)c(N)n1 [thiamine hydrochloride] | – | – | – | – | – | – | reduced | viscosity of the formulation (Evolocumab; 5 mM cyanocobalamin, 25 mM quinine hydrochloride, hydrochloride): reduced viscosity of the formulation; also recorded: most efficient viscosity reducing excipient; viscosity of a Evolocumab formulation (Evolocumab; [11]): reduced the viscosity; viscosity of the formulation (Infliximab [2]; protein concentration 149 mg/ml, 150 mM pyridoxine, thiamine hydrochloride or thiamine monophosphate, 5 mM cyanocobalamin, 13 mM folic acid, 75 mM thiamine pyrophosphate, hydrochloride): reduce the viscosity of the formulation; also recorded: high viscosity reducing potential; viscosity of the formulation (Infliximab [2]; protein concentration 174 mg/ml, 150 mM pyridoxine, ascorbic acid, thiamine hydrochloride or thiamine phosphate, 5 mM cyanocobalamin, 13 mM folic acid, 75 mM thiamine pyrophosphate, versus formulation without excipients, hydrochloride): high viscosity reducing potential; viscosity of the formulation (Infliximab [2]; protein concentration 174 mg/ml, 150 mM pyridoxine, ascorbic acid, thiamine hydrochloride or thiamine phosphate, 5 mM cyanocobalamin, 13 mM folic acid, 75 mM thiamine pyrophosphate, versus formulation without excipients, listed as thiamine hydrochoride, hydrochloride): viscosity reducing effect; viscosity reducing effect on the Infliximab solution (Infliximab [2]; 75 mM thiamine pyrophosphate): strong viscosity reducing effect |
| Cc1ncc(C[n+]2csc(CCOP(=O)(O)O)c2C)c(N)n1 [thiamine monophosphate] | – | – | high viscosity reducing potential | reduce the viscosity of the formulation | – | – | – | viscosity of a Evolocumab formulation (Evolocumab; [11]): reduced the viscosity; viscosity of the formulation (Infliximab [2]; protein concentration 174 mg/ml, 150 mM pyridoxine, ascorbic acid, thiamine hydrochloride or thiamine phosphate, 5 mM cyanocobalamin, 13 mM folic acid, 75 mM thiamine pyrophosphate, versus formulation without excipients, listed as thiamine phosphate): viscosity reducing effect; viscosity reducing effect on the Infliximab solution (Infliximab [2]; 75 mM thiamine pyrophosphate): strong viscosity reducing effect |
| Cc1ncc(C[n+]2csc(CCO[P@](=O)(O)OP(=O)(O)O)c2C)c(N)n1 [thiamine pyrophosphate] | – | – | reduce the viscosity of the formulation | reduce the viscosity of the formulation | – | – | – | viscosity reducing efficiency (Evolocumab; formulations with 179 mg/ml and 204 mg/ml Evolocumab, 75 mM excipient): highly efficient; viscosity of a Evolocumab formulation (Evolocumab; [11]): reduced the viscosity; viscosity reducing effect on the Infliximab solution (Infliximab [2]; 75 mM thiamine pyrophosphate): strong viscosity reducing effect |
| CC(C)[C@H](N)C(=O)O [valine] | – | increase | – | – | – | – | – | aggregation onset temperature Tagg (Infliximab [1]): increase; viscosity of the formulation (Infliximab [2]; [8]): reduced the viscosity of the formulation |
| cyanocobalamin | reduced the viscosity of the formulation | increase | reduce the viscosity of the formulation | reduce the viscosity of the formulation | – | – | reduced viscosity of the formulation | – |
